Literature values, collected in patent publication US7179939B2, “Sodium ferric gluconate complexes and method of manufacture thereof” (priority 2004, dated 2007).

Substance: sodium ferric gluconate complex in sucrose
- reactions associated with administration (severity) (occur at a lower rate compared to iron dextran): mild to moderate
- occurrence of allergic episodes (study comparing iron dextran with sodium ferric gluconate): 3.3 allergic episodes per million doses
